Consider four molecules from paper PMC6683298, “Identifying potential novel drugs against Helicobacter pylori by targeting the essential response regulator HsrA” (Scientific Reports, 2019).

This assay has as its target T1, HsrA response regulator (HP1043) (Helicobacter pylori, UniProt O25684).
T1 construct: gene HP_1043; N-terminal 6xHis tag, removed with thrombin; 223 residues; symmetric dimer
T1 sequence (O25684 1-223): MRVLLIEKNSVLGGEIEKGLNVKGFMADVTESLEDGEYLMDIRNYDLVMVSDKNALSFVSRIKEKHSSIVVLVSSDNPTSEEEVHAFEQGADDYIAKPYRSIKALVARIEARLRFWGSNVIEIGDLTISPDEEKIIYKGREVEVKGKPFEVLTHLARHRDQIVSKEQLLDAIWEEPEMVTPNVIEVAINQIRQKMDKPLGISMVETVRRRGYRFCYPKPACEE
Nature of the assay: isothermal titration calorimetry. The assay is classed as binding. As to conditions: read-out: ITC^a / Kd. The source says:
isothermal titration calorimetry on HsrA response regulator (HP1043)

For `O=c1cc(-c2ccc(O)cc2)oc2cc(O)cc(O)c12` [apigenin], the Kd came to 20 µM.
Consider `O=c1cc(-c2ccccc2)oc2cc(O)cc(O)c12` [chrysin], for which the Kd is 17 µM.
Consider `COc1ccc([C@@H]2CC(=O)c3c(O)cc(O)cc3O2)cc1O` [hesperetin], for which the Kd is 26 µM.
For `O=c1c(O)c(-c2ccc(O)cc2)oc2cc(O)cc(O)c12` [kaempferol], the Kd came to 33 µM.
